Each structure is given as a SMILES string.

For 3 compounds, IC50 results are on record in patent publication US20080096929A1, “Novel Use” (ASTRAZENECA AB, priority 2004, published 2008).

The target of this assay is T1, human MPO (Homo sapiens, UniProt P05164).
T1 sequence (P05164 49-745): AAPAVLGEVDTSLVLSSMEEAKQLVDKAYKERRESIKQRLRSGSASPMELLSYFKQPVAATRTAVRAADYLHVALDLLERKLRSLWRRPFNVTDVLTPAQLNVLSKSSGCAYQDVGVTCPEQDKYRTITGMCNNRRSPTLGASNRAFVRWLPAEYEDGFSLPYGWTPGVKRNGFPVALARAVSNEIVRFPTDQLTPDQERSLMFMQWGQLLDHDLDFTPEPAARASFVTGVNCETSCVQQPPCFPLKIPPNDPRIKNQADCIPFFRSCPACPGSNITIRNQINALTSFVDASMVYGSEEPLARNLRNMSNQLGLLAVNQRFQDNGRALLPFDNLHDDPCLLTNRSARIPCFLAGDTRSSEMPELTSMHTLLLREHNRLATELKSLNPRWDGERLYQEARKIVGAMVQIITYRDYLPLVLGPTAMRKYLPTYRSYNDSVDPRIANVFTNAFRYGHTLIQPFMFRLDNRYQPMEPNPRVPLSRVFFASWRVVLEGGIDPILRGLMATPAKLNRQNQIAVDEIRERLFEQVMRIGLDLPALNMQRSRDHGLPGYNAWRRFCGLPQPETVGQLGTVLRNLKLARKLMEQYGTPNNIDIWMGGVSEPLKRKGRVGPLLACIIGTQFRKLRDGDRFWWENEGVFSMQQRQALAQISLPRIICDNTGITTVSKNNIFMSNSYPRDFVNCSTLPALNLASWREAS
The assay is described as follows: MPO inhibition screen (TMB oxidation, absorbance). Conditions: in the presence of tyrosine (final 8 μM); human MPO 2.5 nM; H2O2 100 μM. The assay is classed as biochemical. How it is done: Methods for the determination of MPO inhibitory activity are disclosed in patent application WO 02/090575. The pharmacological activity of compounds according to the invention was tested in the following screen in which the compounds were either tested alone or in the presence of added tyrosine:
Assay buffer: 20 mM sodium/potassium phosphate buffer pH 6.5 containing 10 mM taurine and 100 mM NaCl.
Developing reagent: 2 mM 3,3′,5,5′-tetramethylbenzidine (TMB), 200 μM KI, 200 mM acetate buffer pH 5.4 with 20% DMF.
To 10 μl of diluted compounds in assay buffer, 40 μl of human MPO (final concentration 2.5 nM), with or without 20 μM tyrosine (final concentration, if present, 8 μM), was added and the mixture was incubated for 10 minutes at ambient temperature. Then 50 μl of H2O2 (final concentration 100 μM), or assay buffer alone as a control, were added. After incubation for 10 minutes at ambient temperature, the reaction was stopped by adding 10 μl 0.2 mg/ml of catalase (final concentration 18 μg/ml). The reaction mixture was left for an additional 5 minutes before 100 μl of TMB developing reagent was added. The amount of oxidised 3,3′,5,5′-tetramethylbenzidine formed was then measured after about 5 minutes using absorbance spectroscopy at about […]. IC50 values were then determined using standard procedures.
In general, IC50 refers to the concentration needed to halve the response being measured. Take `O[C@@H]1CCCC[C@H]1n1c(COc2ccccc2Cl)n[nH]c1=S` (relative stereo) [Example 2, 5-(2-Chloro-phenoxymethyl)-4-(trans-2-hydroxycyclohexyl)-2,4-dihydro-[1,2,4]triazole-3-thione]: the IC50 was 3.59 µM.

For `S=c1[nH]nc(Cc2ccccn2)n1C1CC2C=CC1C2` (stereo not drawn) [Example 4, 4-(Bicyclo[2.2.1]hept-5-en-2-yl)-5-pyridin-2-ylmethyl-2,4-dihydro-[1,2,4]triazole-3-thione], the IC50 was found to be 6.73 µM.

Regarding `S=c1[nH]nc(Cc2ccccn2)n1C1CCN(Cc2ccccc2)C1` (stereo not drawn) [Example 5, 4-(1-Benzyl-pyrrolidin-3-yl)-5-pyridin-2-ylmethyl-2,4-dihydro-[1,2,4]triazole-3-thione], the IC50 is 7.2 µM.
